Assay results taken from patent publication US20230312542A1, “HYDROXYPYRROLIDINE DERIVATIVE AND MEDICINAL APPLICATION THEREOF” (MITSUBISHI TANABE PHARMA CORPORATION, priority 2020, published 2023).

The compounds below were run against VHL (co-expressed with Elongin B and Elongin C) (Homo sapiens (Human), UniProt P40337) (assay: Measurement of intermolecular interactions using surface plasmon resonance (Biacore T200), Kd value for VHL). Details: SPR, immobilized VHL, 25° C.; read-out: Kd.
Assay type: binding
Text: As the device, Biacore T200 (manufactured by GE Healthcare) was used. VHL was obtained by co-expressing Elongin B and Elongin C with a Twin-Strep-tag added to the N-terminus. As the sensor chip, Sensor chip CM5 (manufactured by GE Healthcare) was used. First, Strep-Tactin XT (manufactured by GE Healthcare) was immobilized on the sensor chip by amine coupling. Thereafter, VHL was immobilized using the affinity of Strep-Tactin XT and Twin-Strep-tag, and VHL was further immobilized on the sensor chip by amine coupling.
As the running buffer, a mixed solution of 20 mM HEPES pH 7.5, 150 mM NaCl, 1 mM TCEP, 0.005% Tween 20, and 2% DMSO was used. […] The Contact time and the Dissociation time were determined according to the properties of the compounds. For many compounds, 60 seconds and 120 seconds were respectively used.

Sequence of VHL (co-expressed with Elongin B and Elongin C) (P40337 whole entry, looked up): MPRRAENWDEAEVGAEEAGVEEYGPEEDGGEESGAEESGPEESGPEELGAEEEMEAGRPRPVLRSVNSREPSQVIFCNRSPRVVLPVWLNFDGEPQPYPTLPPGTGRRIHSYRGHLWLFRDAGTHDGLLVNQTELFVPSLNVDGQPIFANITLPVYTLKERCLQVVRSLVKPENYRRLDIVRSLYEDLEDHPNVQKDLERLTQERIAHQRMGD
Sequence of VHL (co-expressed with Elongin B and Elongin C) (Q15370 whole entry partner, looked up): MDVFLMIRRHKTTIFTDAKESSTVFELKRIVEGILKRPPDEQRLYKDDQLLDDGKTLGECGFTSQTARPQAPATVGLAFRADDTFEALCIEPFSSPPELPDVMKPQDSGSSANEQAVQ
Sequence of VHL (co-expressed with Elongin B and Elongin C) (Q15369 whole entry partner, looked up): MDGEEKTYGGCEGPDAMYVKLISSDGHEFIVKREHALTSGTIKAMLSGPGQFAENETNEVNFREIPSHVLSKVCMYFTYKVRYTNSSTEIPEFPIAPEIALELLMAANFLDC

Row | SMILES | Kd [µM]
1 | CC(=O)N[C@H](C(=O)N1C[C@H](O)C[C@H]1c1nc(C(=O)N(C)Cc2ccncc2)c[nH]1)C(C)(C)C [Example 49, 2-[(2S,4R)-1-[(2S)-2-acetamido-3,3-dimethylbutanoyl]-4-hydroxypyrrolidin-2-yl]-N-methyl-N-(pyridin-4-ylmethyl)-1H-imidazole-4-carboxamide] | 1 to 10
2 | CC(=O)N[C@H](C(=O)N1C[C@H](O)C[C@H]1c1nc(C(=O)N(C)Cc2ccccc2)c[nH]1)C(C)(C)C [Example 51, 2-[(2S,4R)-1-[(2S)-2-acetamido-3,3-dimethylbutanoyl]-4-hydroxypyrrolidin-2-yl]-N-benzyl-N-methyl-1H-imidazole-4-carboxamide] | 1 to 10
3 | COc1cccc(-c2cnc([C@@H]3C[C@@H](O)CN3C(=O)C(c3cc(OC)no3)C(C)C)[nH]2)c1 (stereo partly drawn) [Example 61, 1-[(2S,4R)-4-hydroxy-2-[5-(3-methoxyphenyl)-1H-imidazol-2-yl]pyrrolidin-1-yl]-2-(3-methoxy-1,2-oxazol-5-yl)-3-methylbutan-1-one] | 1 to 10
4 | COc1ccc(Cc2cnc([C@@H]3C[C@@H](O)CN3C(=O)C(c3cc(OC)no3)C(C)C)[nH]2)cc1 (stereo partly drawn) [Example 62, 1-[(2S,4R)-4-hydroxy-2-[5-[(4-methoxyphenyl)methyl]-1H-imidazol-2-yl]pyrrolidin-1-yl]-2-(3-methoxy-1,2-oxazol-5-yl)-3-methylbutan-1-one] | 1 to 10
5 | COc1cccc(Cc2cnc([C@@H]3C[C@@H](O)CN3C(=O)C(c3cc(OC)no3)C(C)C)[nH]2)c1 (stereo partly drawn) [Example 63, 1-[(2S,4R)-4-hydroxy-2-[5-[(3-methoxyphenyl)methyl]-1H-imidazol-2-yl]pyrrolidin-1-yl]-2-(3-methoxy-1,2-oxazol-5-yl)-3-methylbutan-1-one] | 1 to 10
6 | CNC(=O)c1ccccc1-c1cnc([C@@H]2C[C@@H](O)CN2C(=O)C(c2cc(OC)no2)C(C)C)[nH]1 (stereo partly drawn) [Example 64, 2-[2-[(2S,4R)-4-hydroxy-1-[2-(3-methoxy-1,2-oxazol-5-yl)-3-methylbutanoyl]pyrrolidin-2-yl]-1H-imidazol-5-yl]-N-methylbenzamide] | 1 to 10
7 | COc1cc(C(C(=O)N2C[C@H](O)C[C@H]2c2nccn2Cc2cccc(Oc3ccccc3)c2)C(C)C)on1 (stereo partly drawn) [Example 65, 1-[(2S,4R)-4-hydroxy-2-[1-[(3-phenoxyphenyl)methyl]imidazol-2-yl]pyrrolidin-1-yl]-2-(3-methoxy-1,2-oxazol-5-yl)-3-methylbutan-1-one] | 10 to 50
8 | COc1cc(C(C(=O)N2C[C@H](O)C[C@H]2c2nccn2Cc2ccccc2OCc2ccccc2)C(C)C)on1 (stereo partly drawn) [Example 66, 1-[(2S,4R)-4-hydroxy-2-[1-[(2-phenylmethoxyphenyl)methyl]imidazol-2-yl]pyrrolidin-1-yl]-2-(3-methoxy-1,2-oxazol-5-yl)-3-methylbutan-1-one] | 10 to 50
9 | COc1cc(C(C(=O)N2C[C@H](O)C[C@H]2c2nccn2Cc2ccccc2Oc2ccccc2)C(C)C)on1 (stereo partly drawn) [Example 69, 1-[(2S,4R)-4-hydroxy-2-[1-[(2-phenoxyphenyl)methyl]imidazol-2-yl]pyrrolidin-1-yl]-2-(3-methoxy-1,2-oxazol-5-yl)-3-methylbutan-1-one] | 10 to 50
10 | COc1ccc(-c2[nH]c([C@@H]3C[C@@H](O)CN3C(=O)C(c3cc(OC)no3)C(C)C)nc2C(F)(F)F)cc1 (stereo partly drawn) [Example 74, 1-[(2S,4R)-4-hydroxy-2-[5-(4-methoxyphenyl)-4-(trifluoromethyl)-1H-imidazol-2-yl]pyrrolidin-1-yl]-2-(3-methoxy-1,2-oxazol-5-yl)-3-methylbutan-1-one] | 1 to 10
11 | COc1cccc(-c2nc([C@@H]3C[C@@H](O)CN3C(=O)C(c3cc(OC)no3)C(C)C)[nH]c2-c2cccc(OC)c2)c1 (stereo partly drawn) [Example 76, 1-[(2S,4R)-2-[4,5-bis(3-methoxyphenyl)-1H-imidazol-2-yl]-4-hydroxypyrrolidin-1-yl]-2-(3-methoxy-1,2-oxazol-5-yl)-3-methylbutan-1-one] | 1 to 10
12 | COc1ccc(-c2cnc([C@@H]3C[C@@H](O)CN3C(=O)C(c3cc(OC)no3)C(C)C)[nH]2)cc1 (stereo partly drawn) [Example 78, 1-[(2S,4R)-4-hydroxy-2-[5-(4-methoxyphenyl)-1H-imidazol-2-yl]pyrrolidin-1-yl]-2-(3-methoxy-1,2-oxazol-5-yl)-3-methylbutan-1-one] | 1 to 10
13 | CC(=O)N[C@H](C(=O)N1C[C@H](O)C[C@H]1c1ncc(-c2ccccc2C(F)(F)F)[nH]1)C(C)(C)C [Example 84, N-[(2S)-1-[(2S,4R)-4-hydroxy-2-[5-[2-(trifluoromethyl)phenyl]-1H-imidazol-2-yl]pyrrolidin-1-yl]-3,3-dimethyl-1-oxobutan-2-yl]acetamide] | 1 to 10
14 | CC(=O)N[C@H](C(=O)N1C[C@H](O)C[C@H]1c1ncc(Cc2cccc(Br)c2)[nH]1)C(C)(C)C [Example 90, N-[(2S)-1-[(2S,4R)-2-[5-[(3-bromophenyl)methyl]-1H-imidazol-2-yl]-4-hydroxypyrrolidin-1-yl]-3,3-dimethyl-1-oxobutan-2-yl]acetamide] | 1 to 10
15 | CC(=O)N[C@H](C(=O)N1C[C@H](O)C[C@H]1c1ncc(Cc2cccc(-c3scnc3C)c2)[nH]1)C(C)(C)C [Example 91, N-[(2S)-1-[(2S,4R)-4-hydroxy-2-[5-[[3-(4-methyl-1,3-thiazol-5-yl)phenyl]methyl]-1H-imidazol-2-yl]pyrrolidin-1-yl]-3,3-dimethyl-1-oxobutan-2-yl]acetamide] | 1 to 10
16 | CC(=O)N[C@H](C(=O)N1C[C@H](O)C[C@H]1c1ncc(Cc2ccc(-c3scnc3C)cc2)[nH]1)C(C)(C)C [Example 93, N-[(1S)-1-[(2S,4R)-4-hydroxy-2-[5-[[4-(4-methyl-1,3-thiazol-5-yl)phenyl]methyl]-1H-imidazol-2-yl]pyrrolidin-1-yl]-3,3-dimethyl-1-oxobutan-2-yl]acetamide] | 1 to 10
17 | COc1cc(C(C(=O)N2C[C@H](O)C[C@H]2c2nccn2CC(=O)Nc2ccccc2)C(C)C)on1 (stereo partly drawn) [Example 96, 2-[2-[(2S,4R)-4-hydroxy-1-[2-(3-methoxy-1,2-oxazol-5-yl)-3-methylbutanoyl]pyrrolidin-2-yl]imidazol-1-yl]-N-phenylacetamide] | 10 to 50
18 | CNC(=O)c1ccc(-c2cnc([C@@H]3C[C@@H](O)CN3C(=O)C(c3cc(OC)no3)C(C)C)[nH]2)cc1 (stereo partly drawn) [Example 97, 4-[2-[(2S,4R)-4-hydroxy-1-[2-(3-methoxy-1,2-oxazol-5-yl)-3-methylbutanoyl]pyrrolidin-2-yl]-1H-imidazol-5-yl]-N-methylbenzamide] | 1 to 10

Other lines, results leading:

Row | Kd [µM] | SMILES
19 | 1 to 10 | CC(=O)N[C@H](C(=O)N1C[C@H](O)C[C@H]1c1nc(C(=O)N(C)Cc2ccccn2)c[nH]1)C(C)(C)C [Example 48, 2-[(2S,4R)-1-[(2S)-2-acetamido-3,3-dimethylbutanoyl]-4-hydroxypyrrolidin-2-yl]-N-methyl-N-(pyridin-2-ylmethyl)-1H-imidazole-4-carboxamide]
20 | 1 to 10 | CC(=O)N[C@H](C(=O)N1C[C@H](O)C[C@H]1c1nc(C(=O)N(C)Cc2cccnc2)c[nH]1)C(C)(C)C [Example 53, 2-[(2S,4R)-1-[(2S)-2-acetamido-3,3-dimethylbutanoyl]-4-hydroxypyrrolidin-2-yl]-N-methyl-N-(pyridin-3-ylmethyl)-1H-imidazole-4-carboxamide]
21 | < 1 | COc1cc(C(C(=O)N2C[C@H](O)C[C@H]2c2nc(C(=O)N(C)Cc3ccc(-c4scnc4C)cc3)c[nH]2)C(C)C)on1 (stereo partly drawn) [Example 54, 2-[(2S,4R)-4-hydroxy-1-[2-(3-methoxy-1,2-oxazol-5-yl)-3-methylbutanoyl]pyrrolidin-2-yl]-N-methyl-N-[[4-(4-methyl-1,3-thiazol-5-yl)phenyl]methyl]-1H-imidazole-4-carboxamide]
22 | 1 to 10 | CNC(=O)c1nc([C@@H]2C[C@@H](O)CN2C(=O)C(c2cc(OC)no2)C(C)C)[nH]c1-c1ccc(OC)cc1 (stereo partly drawn) [Example 75, 2-[(2S,4R)-4-hydroxy-1-[2-(3-methoxy-1,2-oxazol-5-yl)-3-methylbutanoyl]pyrrolidin-2-yl]-5-(4-methoxyphenyl)-N-methyl-1H-imidazole-4-carboxamide]
23 | 1 to 10 | COc1cc(C(C(=O)N2C[C@H](O)C[C@H]2c2ncc(Cc3ccc(C(F)(F)F)cc3)[nH]2)C(C)C)on1 (stereo partly drawn) [Example 79, 1-[(2S,4R)-4-hydroxy-2-[5-[[4-(trifluoromethyl)phenyl]methyl]-1H-imidazol-2-yl]pyrrolidin-1-yl]-2-(3-methoxy-1,2-oxazol-5-yl)-3-methylbutan-1-one]
24 | 1 to 10 | CNC(=O)c1cccc(-c2cnc([C@@H]3C[C@@H](O)CN3C(=O)C(c3cc(OC)no3)C(C)C)[nH]2)c1 (stereo partly drawn) [Example 80, 3-[2-[(2S,4R)-4-hydroxy-1-[2-(3-methoxy-1,2-oxazol-5-yl)-3-methylbutanoyl]pyrrolidin-2-yl]-1H-imidazol-5-yl]-N-methylbenzamide]
25 | 1 to 10 | CC(=O)N[C@H](C(=O)N1C[C@H](O)C[C@H]1c1ncc(Cc2ccc(Br)cc2)[nH]1)C(C)(C)C [Example 81, N-[(2S)-1-[(2S,4R)-2-[5-[(4-bromophenyl)methyl]-1H-imidazol-2-yl]-4-hydroxypyrrolidin-1-yl]-3,3-dimethyl-1-oxobutan-2-yl]acetamide]
26 | 1 to 10 | CC(=O)N[C@H](C(=O)N1C[C@H](O)C[C@H]1c1ncc(-c2ccc(-c3scnc3C)cc2)[nH]1)C(C)(C)C [Example 89, N-[(2S)-1-[(2S,4R)-4-hydroxy-2-[5-[4-(4-methyl-1,3-thiazol-5-yl)phenyl]-1H-imidazol-2-yl]pyrrolidin-1-yl]-3,3-dimethyl-1-oxobutan-2-yl]acetamide]
